Data from ChEMBL document CHEMBL6153101, “Chamilactones A and B, Sesquiterpenes from the Endophytic Fungus Chaetomium nigricolor F5” (J Nat Prod, 2025).
Calls of active or inactive are those of the source. No cut-off for these calls is given here.

How the values were obtained:
Format in all cases: functional, cell-based
BV-2 [1] = assay: Anti-neuroinflammatory effect in mouse BV-2 cells assessed as suppression of LPS-mediated IL-6 secretion preincubated for 2 hrs followed by stimulation with LPS for 24 hrs by ELISA assay; settings: dose 10-40 µM, time 26.0 hrs
BV-2 [2] = assay: Anti-neuroinflammatory effect in mouse BV-2 cells assessed as decrease in LPS-mediated TLR4 expression at 10 to 40 uM preincubated for 2 hrs followed by stimulation with LPS for 24 hrs by Western blot analysis; settings: dose 10-40 µM, time 26.0 hrs
BV-2 [3] = assay: Anti-neuroinflammatory effect in mouse BV-2 cells assessed as inhibition of LPS-mediated nuclear translocation of NF-kappaB p65 at 20 to 40 uM preincubated for 2 h followed by stimulation with LPS for 1 h by immunocytochemical analysis; settings: dose 20-40 µM, time 3.0 hrs
BV-2 [4] = assay: Anti-neuroinflammatory effect in mouse BV-2 cells assessed as decrease in LPS-mediated p-p65 expression preincubated for 2 hrs followed by stimulation with LPS for 24 hrs by Western blot analysis; settings: dose 10-40 µM, time 26.0 hrs
BV-2 [5] = assay: Anti-neuroinflammatory effect in mouse BV-2 cells assessed as suppression of LPS-mediated TNF-alpha secretion preincubated for 2 hrs followed by stimulation with LPS for 24 hrs by ELISA assay; settings: dose 10-40 µM, time 26.0 hrs

Cc1c2c(cc3c1CCOC3=O)CC(C)(C)C2
Activity (BV-2 [1]): Dose-dependent-effect; Exhibited Most Potent Effect
Activity (BV-2 [2]): Active
inhibition (BV-2 [3]): Active
Activity (BV-2 [4]): Dose-dependent-effect
Activity (BV-2 [5]): Dose-dependent-effect; Exhibited Most Potent Effect
